# Assay results published in patent US20190111059A1, “COMPOSITIONS AND METHODS FOR TREATING AUTISM SPECTRUM DISORDER” (Marinus Pharmaceuticals, Inc., priority 2017, published 2019).
# Structures can show the parent of a compound that is named as a salt.
# Key:
# [1] = cited from earlier work
# [2] = test system: children with non-syndromic autism spectrum disorder (ASD) and language impairment; assay: Randomized double-blind placebo-controlled trial: verbal communication (CELF-preschool-2, CELF-4, PLS-5), primary outcome; type: in vivo, human; conditions: for Verbal communication, effect size (Cohen's d) / Verbal communication, estimated effect vs placebo / Verbal communication, 12 weeks: 2 mg kg^−1 per day; for Verbal communication, effect size (Cohen's d) / Verbal communication, estimated effect vs placebo / % Difference responders (folinic acid vs placebo) / Adjusted odds ratio of response / Number needed to treat / Unadjusted odds ratio of response / % responders / Number of responders (increase in five standardized points, verbal communication): 12 weeks; for Verbal communication, estimated effect vs placebo: mixed-model regression
# Experimental: We sought to determine whether high-dose folinic acid improves verbal communication in children with non-syndromic autism spectrum disorder (ASD) and language impairment in a double-blind placebo control setting. Forty-eight children (mean age 7 years 4 months; 82% male) with ASD and language impairment were randomized to receive 12 weeks of high-dose folinic acid (2 mg kg^-1 per day, maximum 50 mg per day; n=23) or placebo (n=25). Children were subtyped by glutathione and folate receptor-α autoantibody (FRAA) status. […] FRAA status was predictive of response to treatment. […] 2012 to 22 Nov. 2013. Participants who met inclusion and exclusion criteria were screened for language impairment. Preverbal (<25 functional words) children qualified as language impaired. Otherwise, the age-appropriate version of the Clinical Evaluation of Language Fundamentals (CELF) confirmed language impairment. Language impairment was defined as a core standardized score<85 if the preschool version was used or failure on the CELF screener if other versions were used. Those confirmed to have language impairment were randomized to the folinic acid or placebo group and a fasting blood sample was obtained. Randomization was performed using a random number generator with a block size of four. The research pharmacists had exclusive access to the randomization allocation. After breakfast, the participants returned for language, developmental and behavioral assessments. Following these assessments the family was given the 12 weeks of the intervention and was instructed on its administration. Language, developmental and behavioral assessments were repeated after 12 weeks of treatment. The target dose of the intervention (INN: DL folinic acid calcium salt; USAN: leucovorin calcium) was 2 mg kg^-1 per day (maximum 50 mg per day) in two equally divided doses with half of the target dose given during the first 2 weeks. Dye-free, milk-product-free, vegetarian capsules were provided in three strengths (5, 10 and 25 mg) by Lee Silsby Compounding Pharmacy (Cleveland Heights, Ohio, USA). Certificate of analysis was provided for each capsule strength by an independent analytical service (Eagle Analytical Services, Houston, Tex., USA) for each batch of capsules produced. In all cases, potency was at least 99%. Primary outcome. Verbal communication was the primary outcome for several reasons. First, verbal communication improved in preliminary folinic acid treatment studies. Second, verbal communication in children with ASD is closely linked to parental quality of life. Third, the development of language and communication skills is associated with favorable outcomes. Instruments used were the CELF-preschool-2, CELF-4 and the Preschool Language Scale-5 (PLS-5). The standardized summary score of each instrument (mean 100, standard deviation 15) was the primary outcome measure and ranges from 50 to 150 for the PLS-5 and 45 to 155 for the CELF. The ability-appropriate instrument was selected using a structured algorithm. The goal was to select an instrument with an adequate dynamic range for assessing improvement in verbal communication. The assessment started with the most age-appropriate instrument. If the child obtained a score at the floor, the next lower ability instrument was then used. This process was repeated until a score above the floor could be obtained. The score from the final instrument was the primary outcome measure at baseline and at trial end. If the child's age exceeded the maximum age of the instrument's standardization, the maximum standardized age was used. At trial end, all instruments used during the baseline assessment were repeated in the same order to simulate the same baseline assessment experience and to minimize a potential confounder of cognitive fatigue. Studies have shown that early behavioral therapy improves verbal communication by one-standard deviation over 36 weeks. […]
# [3] = antibody negative, folinic acid N = 10
# [4] = antibody positive, folinic acid N = 13
# [5] = glutathione high, folinic acid N = 14
# [6] = glutathione low, folinic acid N = 9
smiles,measurement,setting,value
"Nc1nc2c(c(=O)[nH]1)N(C=O)C(CNc1ccc(C(=O)N[C@@H](CCC(=O)O)C(=O)O)cc1)CN2 (mixture of isomers) [Folinic acid, DL folinic acid calcium salt]",Absorption following oral administration,[1],rapidly absorbed
same,"Verbal communication, effect size (Cohen's d)",[2]; FRAA antibody negative N=17,0.30
same,"Verbal communication, estimated effect vs placebo","[2]; FRAA antibody negative N=17, calcium salt",2.5 standardized score
same,"Verbal communication, estimated effect vs placebo","[2]; FRAA antibody negative N=17, listed as folinic acid, calcium salt",not significantly different
same,"Verbal communication, effect size (Cohen's d)",[2]; FRAA antibody positive N=31,0.91
same,"Verbal communication, estimated effect vs placebo","[2]; FRAA antibody positive N=31, calcium salt",7.3 standardized score
same,"Verbal communication, effect size (Cohen's d)",[2]; glutathione redox ratio high N=24,0.46
same,"Verbal communication, estimated effect vs placebo","[2]; glutathione redox ratio high N=24, calcium salt",3.0 standardized score
same,"Verbal communication, estimated effect vs placebo","[2]; glutathione redox ratio high N=24, listed as folinic acid, calcium salt",not significantly different
same,"Verbal communication, effect size (Cohen's d)",[2]; glutathione redox ratio low N=24,0.95
same,"Verbal communication, estimated effect vs placebo","[2]; glutathione redox ratio low N=24, calcium salt",9.1 standardized score
same,"Verbal communication, estimated effect vs placebo","[2]; glutathione redox ratio low N=24, listed as folinic acid, calcium salt",significantly greater
same,"Verbal communication, effect size (Cohen's d)",[2]; overall N=48,0.70
same,"Verbal communication, estimated effect vs placebo","[2]; overall N=48, calcium salt",5.7 standardized score
same,"Verbal communication, 12 weeks","[2]; FRAA antibody negative, baseline 57.9",64.5 standardized score
same,"Verbal communication, 12 weeks","[2]; FRAA antibody positive, baseline 58.1",66.1 standardized score
same,"Verbal communication, 12 weeks","[2]; glutathione redox ratio high, baseline 59.2",65.0 standardized score
same,"Verbal communication, 12 weeks","[2]; glutathione redox ratio low, baseline 56.1",66.0 standardized score
same,"Verbal communication, 12 weeks","[2]; overall, baseline 58.1",65.4 standardized score
same,% Difference responders (folinic acid vs placebo),[2]; antibody negative,21%
same,Adjusted odds ratio of response,[2]; antibody negative,3.6
same,Number needed to treat,[2]; antibody negative,4.7
same,Unadjusted odds ratio of response,[2]; antibody negative,2.5
same,% responders,[2]; [3],50%
same,"Number of responders (increase in five standardized points, verbal communication)",[2]; [3],5
same,% Difference responders (folinic acid vs placebo),[2]; antibody positive,"55% (19%,"
same,Adjusted odds ratio of response,[2]; antibody positive,67.4
same,Number needed to treat,[2]; antibody positive,1.8
same,Unadjusted odds ratio of response,[2]; antibody positive,11.7
same,% responders,[2]; [4],77%
same,"Number of responders (increase in five standardized points, verbal communication)",[2]; [4],10
same,% Difference responders (folinic acid vs placebo),[2]; glutathione high,"34% (−4%,"
same,Adjusted odds ratio of response,[2]; glutathione high,21.9
same,Number needed to treat,[2]; glutathione high,2.9
same,Unadjusted odds ratio of response,[2]; glutathione high,4.2
same,% responders,[2]; [5],64%
same,"Number of responders (increase in five standardized points, verbal communication)",[2]; [5],9
same,% Difference responders (folinic acid vs placebo),[2]; glutathione low,"47% (10%,"
same,Adjusted odds ratio of response,[2]; glutathione low,10.2
same,Number needed to treat,[2]; glutathione low,2.1
same,Unadjusted odds ratio of response,[2]; glutathione low,8.0
same,% responders,[2]; [6],67%
same,"Number of responders (increase in five standardized points, verbal communication)",[2]; [6],6
same,Adjusted odds ratio of response,[2]; overall,14.9
same,Number needed to treat,[2]; overall,2.4
same,Unadjusted odds ratio of response,[2]; overall,5.9
same,% responders,"[2]; overall, folinic acid N = 23",65%
same,"Number of responders (increase in five standardized points, verbal communication)","[2]; overall, folinic acid N = 23",15
same,% Difference responders (folinic acid vs placebo),"[2]; overall, calcium salt","41% (13%,"
same,% Difference responders (folinic acid vs placebo),"[2]; overall, listed as folinic acid, calcium salt",significantly more responders
